Data: patent US6589992B2, “Inhibiting collagen-induced platelet aggregation” (Parker Hughes Institute, priority 1999, dated 2003)

System: ICR mice
Assay: Thromboplastin-induced fatal thromboembolism in mice
Type: in vivo
Conditions: N=10
Method: The mice were challenged with 25 mg/kg thromboplastin (Sigma, St. Louis, Mo.) via a bolus i.v. injection in to the tail vein as previously described (Sato et al., 1998). At the time of thromboembolism-related death, after the thromboplastin injection or elective sacrifice at 48 hours using ketamine/xylazine, all mice were perfused with PBS followed by 4% phosphate buffered formalin. PBS and formalin were pumped through the left ventricle of the heart and allowed to exit through a 3 mm incision through the anterior wall of the right ventricle.

CC(=O)CC(c1ccccc1)c1c(O)c2ccccc2oc1=O (centres unmarked) [warfarin, reference compound]
probability of event-free survival after thromboplastin challenge (warfarin 3 mg/kg i.p. 18 hours prior): 10±9%
median survival time (warfarin 3 mg/kg): 5.3 min
